Details: IV bolus, once-daily 2 mg/day
Description: A randomized crossover clinical study was conducted in 11 individuals who received either a transdermal patch or an IV solution of granisetron. […] This was followed by a 10 day wash-out period, after which the same individuals received granisetron IV in once-daily dosages of 2 mg/day Individuals who received the IV treatment in the first period received a transdermal patch in the cross over treatment. Blood plasma levels of granisetron for all of the individuals in the test were measured periodically during the 96 hour time that the patches were being worn and the IV dosages were being administered, and for an additional 2 days after the patches were removed and the IV administration discontinued.

For `CN1C2CCCC1CC(NC(=O)c1nn(C)c3ccccc13)C2` (stereo not shown) [IV granisetron, granisetron], the “blood plasma level profile” value was “sharp spikes in blood plasma levels”.

From patent publication US8246981B2, “Transdermal method and patch for emesis” (Abeille Pharamaceuticals, Inc., priority 2005, dated 2012)
